Experimental findings from article PMC4963854, “Mapping Protein–Protein Interactions of the Resistance-Related Bacterial Zeta Toxin–Epsilon Antitoxin Complex (ε2ζ2) with High Affinity Peptide Ligands Using Fluorescence Polarization” (Toxins, 2016) are described below.

One may read the IC50 as the midpoint of a concentration-inhibition curve.

In assay [1] the target is T1, Epsilon protein (His6-Epsilon) (Streptococcus pyogenes, UniProt Q57231).
T1 construct: His6 (N); made in house; host or cells: E. coli BL21 (DE3)
T1 sequence (Q57231 1-90): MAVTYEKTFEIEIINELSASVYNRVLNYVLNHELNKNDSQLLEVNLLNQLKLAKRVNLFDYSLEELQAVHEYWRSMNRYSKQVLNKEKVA
Nature of the assay: Fluorescence polarization (FP) direct binding assay of fluorescein-labeled peptides to Epsilon. Here is the method: Binding affinities of the fluorescein-labeled peptides Fluo-(I–III) with Epsilon protein were determined in a fluorescence polarization (FP) assay. For the purpose, 10 nM solutions of each fluorescein-labeled peptide containing different concentrations of Epsilon (from 5 nM to 7.5 µM) were irradiated with polarized light at the excitation wavelength of 470 nm and the polarization of the emitted light was recorded in mP at […] (see Section 4).
Figure 3 Dose-response curve for the binding of Fluo-(I–II) to the Epsilon protein. The fluorescent-labeled peptides Fluo-(I–II) at a concentration of 10 nM were treated with increasing concentrations of Epsilon (from 0.05 nM to 2.5 µM) in 10 mM HEPES assay buffer, pH 7.5, with 0.1% Tween-20. Values are plotted as the means ± standard deviation (n = 3) from three independent experiments.
For fluorescence polarization measurements, peptides were dissolved in DMSO at 10 mM and diluted in 10 mM HEPES (pH 7.5) containing 0.1% Tween-20. The assay was conducted on untreated black 384-well microtiter plates (low volume, non-binding surface, round bottom, non-sterile black polystyrene, Corning B.V. Life Sciences, Nr. 3676, Kennebunk, ME, USA) in a final volume of 10 µL, using 10 mM HEPES (pH 7.5) with 0.1% Tween-20 as a buffer. The final DMSO proportion in the assay was less than 0.1%. The measurements were performed on a SAFIRE II (Tecan) microplate reader, using an excitation wavelength of 470 nm and emission wavelength of 525 nm. The final assay mixtures contained 5 µL fluorescein-labeled peptide (furnishing a final assay concentration of 10 nM), and 5 µL of increasing amounts of Epsilon protein (final concentrations ranging from 0.05 nM to 5 µM). The negative controls comprised 5 µL fluorescein-labeled peptide (maintaining a final assay concentration of 10 nM) and 5 µL 10 mM HEPES buffer (pH 7.5) containing 0.1% Tween-20. To avoid protein aggregation, Tween-20 (0.1% final concentration) was used as a detergent in all experiments. After adding the fluorescent peptide, the plates were centrifuged (2000 min^−1, 3 min) and shaken briefly (2000 rpm for 10 min at room temperature), and polarization of the emitted fluorescence was directly recorded. In every case, the well containing only the fluorescein-labeled peptide was subtracted from the assay well as background. The polarization values (mP) were plotted as a function of the logarithm of the protein concentration. […] All of the experiments were carried out in duplicate in three independent experiments, and the results are expressed as the mean ± standard deviation (SD).

Assay [2] addresses T1, Epsilon protein (His6-Epsilon). Nature of the assay: Competitive FP binding assay: acetylated peptides displace fluorescein-labeled peptide from Epsilon. The note with it: unlabeled peptide 0.01-100 µM, 10 mM HEPES pH 7.5, 0.1% Tween-20, 384-well, duplicates in three independent experiments ± SD. From the text:
The fluorescent high-affinity peptide ligands could be the basis for an especially economic and reliable high-throughput assay, if the fluorescence polarization read-out can be used for the screening of potential ligands that are able to bind to Epsilon in a competitive binding assay. For this purpose, we utilized the unlabeled peptides Ac-Ia and Ac-IIb containing the same amino acid sequence as the initial peptides but with their N-terminus modified by the introduction of an acetyl group. The competitive binding assays were performed by using appropriate amounts of Epsilon protein based on the binding affinity, expressed in terms of the KD value, for the labeled peptides Fluo-Ia and Fluo-IIb. In both cases, the protein concentration was set to the KD value and 5-fold the KD value to study the influence of the protein concentration on the IC50-value of every acetylated peptide. Thus, the Epsilon protein (100 nM or 500 nM final concentration) was treated with Fluo-Ia or Fluo-IIb (10 nM final concentration). After incubation, each mixture was treated with different concentrations of the unlabeled peptides Ac-Ia and Ac-IIb, ranging from 0.01 to 100 µM. […] The ability to identify active compounds (hits) from a particular high-throughput screening (HTS) assay depends largely on the suitability or quality of the assay conditions used in the screening. […]
Figure 5 Competitive binding of the fluorescein-labeled peptides Fluo-Ia and Fluo-IIb to the Epsilon protein in 384-well plates. […] Fluorescence polarization was measured on a SAFIRE II (Tecan, Crailsheim, Germany) microplate reader, using an excitation wavelength of 470 nm and emission wavelength of 525 nm. […]
For the competitive binding assays, unlabeled peptides containing the same amino acid sequence as the previous one but with the N-terminal end modified by the introduction of acetyl group were used. […] The measurements were performed on a SAFIRE II microplate reader (Tecan), using an excitation wavelength of 470 nm and emission wavelength of 525 nm. […]

Setting [3] is: 10 nM fluorescein-labeled peptide titrated with Epsilon, 10 mM HEPES pH 7.5, 0.1% Tween-20, no NaCl, ex 470 nm/em 525 nm, EC50 taken as KD (Q close to 1), three independent experiments, n = 3 ± SD, SD, read-out: Binding constant KD.

Where two headings read alike, the source gives them in different places. Ends that are not written are not given here. Peptide text beside a SMILES is read from it. * marks the point of attachment. 5FAM = O=C1OC2(c3ccc(O)cc3Oc3cc(O)ccc32)c2ccc(C(=O)*)cc21

Regarding `CC(C)C[C@H](NC(=O)c1ccc2c(c1)C(=O)OC21c2ccc(O)cc2Oc2cc(O)ccc21)C(=O)N[C@@H](CCCNC(=N)N)C(=O)N[C@@H](CO)C(=O)N[C@@H](C)C(=O)N[C@@H](CCC(=O)O)C(=O)N[C@@H](Cc1ccccc1)C(=O)N[C@@H](CCC(=O)O)C(=O)N[C@@H](CCC(=O)O)C(=O)N[C@H](C(=O)N[C@@H](CCC(N)=O)C(=O)O)[C@@H](C)O` [Fluo-IIa] (5FAM-LRSAEFEETQ-OH), in assay [1] (setting [3]), the Kd was determined as 0.169 ± 0.016 µM.

`CC(C)C[C@H](NC(=O)[C@H](CO)NC(=O)[C@@H](NC(=O)[C@H](CC(=O)O)NC(=O)CNC(=O)c1ccc2c(c1)C(=O)OC21c2ccc(O)cc2Oc2cc(O)ccc21)[C@@H](C)O)C(=O)N[C@@H](CCCNC(=N)N)C(=O)N[C@@H](CO)C(=O)N[C@@H](C)C(=O)N[C@@H](CCC(=O)O)C(=O)N[C@@H](Cc1ccccc1)C(=O)N[C@@H](CCC(=O)O)C(=O)N[C@@H](CCC(=O)O)C(=O)N[C@H](C(=O)N[C@@H](CCC(N)=O)C(=O)O)[C@@H](C)O` [Fluo-IIb] (5FAM-GDTSLRSAEFEETQ-OH): the Kd in assay [1] (setting [3]) stood at 0.0995 ± 0.0122 µM. The same measure, in the same setting: to `CC(C)C[C@H](NC(=O)[C@H](CO)NC(=O)[C@@H](NC(=O)[C@H](CC(=O)O)NC(=O)CNC(=O)[C@H](CO)NC(=O)CNC(=O)c1ccc2c(c1)C(=O)OC21c2ccc(O)cc2Oc2cc(O)ccc21)[C@@H](C)O)C(=O)N[C@@H](CCCNC(=N)N)C(=O)N[C@@H](CO)C(=O)N[C@@H](C)C(=O)N[C@@H](CCC(=O)O)C(=O)N[C@@H](Cc1ccccc1)C(=O)N[C@@H](CCC(=O)O)C(=O)N[C@@H](CCC(=O)O)C(=O)N[C@H](C(=O)N[C@@H](CCC(N)=O)C(=O)O)[C@@H](C)O` [Fluo-IIc] (5FAM-GSGDTSLRSAEFEETQ-OH) belongs 0.134 ± 0.015 µM. Consider `CC[C@H](C)[C@H](NC(=O)[C@H](CC(C)C)NC(=O)[C@H](CCC(=O)O)NC(=O)[C@H](CCC(=O)O)NC(=O)[C@H](Cc1c[nH]cn1)NC(=O)[C@H](CC(N)=O)NC(=O)[C@H](CC(=O)O)NC(=O)[C@H](CC(N)=O)NC(=O)[C@H](CC(C)C)NC(=O)c1ccc2c(c1)C(=O)OC21c2ccc(O)cc2Oc2cc(O)ccc21)C(=O)N[C@@H](CCC(N)=O)C(=O)O` [Fluo-Ia] (5FAM-LNDNHEELIQ-OH), for which the Kd in assay [1] (10 nM Fluo-Ia, 10 mM HEPES pH 7.5, 0.1% Tween-20, plus 10 mM NaCl, read-out: Binding constant in presence of 10 mM NaCl) worked out at 0.105 µM; in assay [1] (setting [3]), 0.0745 ± 0.0105 µM.

In the case of `CC[C@H](C)[C@H](NC(=O)[C@H](CC(C)C)NC(=O)[C@H](CCC(=O)O)NC(=O)[C@H](CCC(=O)O)NC(=O)[C@H](Cc1c[nH]cn1)NC(=O)[C@H](CC(N)=O)NC(=O)[C@H](CC(=O)O)NC(=O)[C@H](CC(N)=O)NC(=O)[C@H](CC(C)C)NC(=O)[C@H](CCCNC(=N)N)NC(=O)[C@H](CC(N)=O)NC(=O)[C@H](CCC(=O)O)NC(=O)[C@H](Cc1ccccc1)NC(=O)c1ccc2c(c1)C(=O)OC21c2ccc(O)cc2Oc2cc(O)ccc21)C(=O)N[C@@H](CCC(N)=O)C(=O)O` [Fluo-Ib] (5FAM-FENRLNDNHEELIQ-OH), the Kd in assay [1] (setting [3]) was found to be 0.0895 ± 0.0139 µM. `CC[C@H](C)[C@H](NC(=O)[C@H](CC(C)C)NC(=O)[C@H](CCC(=O)O)NC(=O)[C@H](CCC(=O)O)NC(=O)[C@H](Cc1c[nH]cn1)NC(=O)[C@H](CC(N)=O)NC(=O)[C@H](CC(C)C)NC(=O)[C@H](CC(N)=O)NC(=O)[C@H](CC(=O)O)NC(=O)c1ccc2c(c1)C(=O)OC21c2ccc(O)cc2Oc2cc(O)ccc21)C(=O)N[C@@H](CCC(N)=O)C(=O)O` [Fluo-Ie] (5FAM-DNLNHEELIQ-OH; C-terminus assumed): in assay [1] (10 nM fluorescein-labeled peptide titrated with Epsilon, 10 mM HEPES pH 7.5, 0.1% Tween-20), the “ΔmP (dynamic range of polarization)” value worked out at 115. Besides, the Kd in assay [1] (setting [3]) is 0.175 ± 0.0089 µM. Consider Ac-GDTSLRSAEFEETQ [Ac-IIb], for which the IC50 in assay [2] (500 nM Epsilon, 10 nM Fluo-IIb, read-out: IC50, competition with Fluo-IIb, 500 nM Epsilon) is 15.3 ± 2.5 µM. For Ac-LNDNHEELIQ [Ac-Ia], the IC50 was found to be 18.6 ± 4.64 µM in assay [2] (100 nM Epsilon, 10 nM Fluo-Ia, read-out: IC50, competition with Fluo-Ia, 100 nM Epsilon) and 51.8 ± 7.4 µM in assay [2] (500 nM Epsilon, 10 nM Fluo-Ia, read-out: IC50, competition with Fluo-Ia, 500 nM Epsilon).
